{"source": "ChEMBL document CHEMBL1142600", "about": "“Production of justicidin B, a cytotoxic arylnaphthalene lignan from genetically transformed root cultures of Linum leonii” (J Nat Prod, 2006)", "format_in_all_cases": "functional, cell-based", "key": {"LAMA-84": {"tested_on": "LAMA-84", "test": "Cytotoxicity against human LAMA-84 cells after 72 hrs by MTT assay", "details": "LAMA-84, 72 h"}, "K562": {"tested_on": "K562", "test": "Cytotoxicity against human K-562 cells after 72 hrs by MTT assay", "details": "K562, 72 h"}, "[1]": {"test": "Cytotoxicity against human SKW3 cells after 72 hrs by MTT assay", "details": "SKW3, 72 h"}}, "data": [{"compound": "COc1cc([C@@H]2c3cc4c(cc3[C@@H](O[C@@H]3O[C@@H]5CO[C@@H](C)O[C@H]5[C@H](O)[C@H]3O)[C@H]3COC(=O)[C@H]23)OCO4)cc(OC)c1O", "note": "[ETOPOSIDE]", "values": [{"measurement": "IC50", "setting": "LAMA-84", "result": 790, "unit": "nM"}, {"measurement": "IC50", "setting": "K562", "result": 1870, "unit": "nM"}, {"measurement": "IC50", "setting": "[1]", "result": 820, "unit": "nM"}]}]}
